Measurements taken from ChEMBL document CHEMBL1142196, “Leishmania donovani polyamine biosynthetic enzyme overproducers as tools to investigate the mode of action of cytotoxic polyamine analogs” (Antimicrob Agents Chemother, 2007).
Calls of active or inactive are those of the source. The rule behind the calls is not given here.

Columns and labels:
Leishmania donovani [1] = experiment: Antiproliferative activity against Leishmania donovani DI700 promastigotes; assay type: functional, organism-based
Leishmania donovani [2] = experiment: Growth of Leishmania donovani DI700 promastigotes at 100 uM relative to control
Leishmania donovani [3] = experiment: Antiproliferative activity against Leishmania donovani DI700 promastigotes overproducing ODC enzyme; assay type: functional, organism-based
Leishmania donovani [4] = experiment: Antiproliferative activity against Leishmania donovani DI700 promastigotes overproducing SPDSYN enzyme; assay type: functional, organism-based
Leishmania donovani [5] = experiment: Antiproliferative activity against Leishmania donovani DI700 promastigotes overproducing ADOMETDC enzyme; assay type: functional, organism-based
Leishmania donovani [6] = experiment: Antiproliferative activity against Leishmania donovani DI700 promastigotes in presence of 100 uM putrescine; assay type: functional, organism-based
Leishmania donovani [7] = experiment: Antiproliferative activity against Leishmania donovani DI700 promastigotes in presence of 100 uM spermidine; assay type: functional, organism-based

| SMILES | Activity (Leishmania donovani [1]) | growth, % of control at 100 µM (Leishmania donovani [2]) [%] | EC50 (Leishmania donovani [1]) [µM] | EC50 (Leishmania donovani [3]) [µM] | EC50 (Leishmania donovani [4]) [µM] | EC50 (Leishmania donovani [5]) [µM] | EC50 (Leishmania donovani [6]) [µM] | EC50 (Leishmania donovani [7]) [µM] |
| --- | --- | --- | --- | --- | --- | --- | --- | --- |
| CCNCCCCNCC1CC1CNCCCCNCC1CC1CNCCCCNCC (stereo not given) | inactive | 118 |  |  |  |  |  |  |
| CCNCCCCNCC1CCC1CNCCCCNCC (stereo not given) | inactive | 92.8 |  |  |  |  |  |  |
| CCNCCCCNCC1CC1CNCCCCN(CC)C(=O)CCC1=C(C)c2cc3[nH]c(cc4nc(cc5[nH]c(cc1n2)c(CCC(=O)N(CC)CCCCNCC1CC1CNCCCCNCC)c5C)C(CC)=C4C)c(CC)c3C (stereo not given) | inactive | 1.3 |  |  |  |  |  |  |
| CCNC/C=C\CNC/C=C\CNC/C=C\CNCC | inactive | 104 |  |  |  |  |  |  |
| CCNCCCCNCCCCNCCCCNCCCCNCCCCNCCCCNCCCCNCCCCNCCCCNCC |  | 62.6 | 9 | 9 | 50 |  |  |  |
| CCNC/C=C\CNCCCCNC/C=C\CNCC | inactive | 128 |  |  |  |  |  |  |
| CCCCCCCCCCCCCC1CCN(CCCNC(=O)CCC2=C(C)c3cc4[nH]c(cc5nc(cc6[nH]c(cc2n3)c(CCC(=O)NCCCN2CCCN(C)CCCCN(C)CCCN(C)C(CCCCCCCCCCCCC)CC2)c6C)C(CC)=C5C)c(CC)c4C)CCCN(C)CCCCN(C)CCCN1C (stereo not given) |  | 1.7 | 50 |  |  |  |  |  |
| CCNC/C=C\CNCCCCNCCCCNCCCCNCC | inactive | 83.2 |  |  |  |  |  |  |
| CCNCCCCNCCCCNCCCCNC/C=C/CNCCCCNCCCCNCCCCNCC | inactive | 85.5 |  |  |  |  |  |  |
| CCNCCCCNCCCCNCCCCNCCCCNCCCCNCCCCNCCCCNCCCCNCCCCNCCCCNCCCCNCCCCNCCCCNCC |  | 8.9 | 9 |  |  |  |  |  |
| CCNCCCCNCCCCNCCCCNCCCCNCCCCNC/C=C/CNCCCCNCCCCNCCCCNCCCCNCCCCNCC | inactive | 7.5 |  |  |  |  |  |  |
| N=C(N)c1ccc(OCCCCCOc2ccc(C(=N)N)cc2)cc1 [PENTAMIDINE] |  |  | 1.9 | 2.6 | 1.7 | 1.7 | 1.9 | 2 |
| CCNCCCCNCCCCNCCCCNCCCCNCC1CC1CNCCCCNCCCCNCCCCNCCCCNCC (stereo not given) | inactive | 73 |  |  |  |  |  |  |
| CCNCCCCNCCCCNCCCCNCCCCNC/C=C\CNCCCCNCCCCNCCCCNCCCCNCC | inactive | 25.7 |  |  |  |  |  |  |
| CCNCCCCNCCCCNCCCCNCCCCNCCCCNCCCCNCCCCNCCCCNCCCCN(CC)C(=O)CCC1=C(C)c2cc3[nH]c(cc4nc(cc5[nH]c(cc1n2)c(CCC(=O)N(CC)CCCCNCCCCNCCCCNCCCCNCCCCNCCCCNCCCCNCCCCNCCCCNCC)c5C)C(CC)=C4C)c(CC)c3C |  | 2.2 | 0.5 |  |  |  |  |  |
| CCNCCCCNCCCCNCCCCNCCCCNC/C=C/CNCCCCNCCCCNCCCCNCCCCNCC | inactive | 62.4 |  |  |  |  |  |  |

| SMILES | Activity (Leishmania donovani [1]) | growth, % of control at 100 µM (Leishmania donovani [2]) [%] | EC50 (Leishmania donovani [1]) [µM] | EC50 (Leishmania donovani [3]) [µM] | EC50 (Leishmania donovani [4]) [µM] | EC50 (Leishmania donovani [5]) [µM] | EC50 (Leishmania donovani [6]) [µM] | EC50 (Leishmania donovani [7]) [µM] |
| --- | --- | --- | --- | --- | --- | --- | --- | --- |
| CCNCCCCNCCCCNCCCCNCCCCNCCCCNCCCCNCCCCNCC | inactive | 99.2 |  |  |  |  |  |  |
| CCNCCCCNCCCCNCCCCNCCCCN(CC)CCCCNCCCCNCCCCNCCCCNCC | inactive | 102 |  |  |  |  |  |  |
| CCNCCCCNC/C=C\CNCCCCNCCCCNCC | inactive | 96.2 |  |  |  |  |  |  |
| CCNCCCCNCCCCNCCCCNCCCCNCCCCNCCCCNCCCCNCCCCNCCCCN(CC)C(=O)CCC1=C(C)c2cc3[nH]c(cc4nc(cc5[nH]c(cc1n2)c(CCC(=O)N(CC)CCCCNCCCCNCCCCNCCCCNCCCCNCCCCNCCCCNCCCCNCCCCNCC)c5C)C(S(=O)(=O)O)=C4C)c(S(=O)(=O)O)c3C |  | 1.1 | 0.7 |  |  |  |  |  |
| NCCC[C@](N)(C(=O)O)C(F)F [EFLORNITHINE, (S)-] |  |  | 40 | > 1000 | 40 | 30 | > 1000 | 130 |
| CCCCCCCCCCCCCC1CCN(CCCN)CCCN(C)CCCCN(C)CCCCN1C (stereo not given) | inactive | 98.3 |  |  |  |  |  |  |
| CCNCCCCNCCCCNCCCCNCCCCNCCCCNCCCCNCCCCNCCCCNCCCCNCCCCNCCCCNCC |  | 8.4 | 0.4 | 5.5 | 0.5 |  |  |  |
| CCNCCCCNCCCCNCCCCNC/C=C\CNCCCCNCCCCNCCCCNCC | inactive | 97.2 |  |  |  |  |  |  |
| CCNCCCCNCCCCNCCCCNCCCCNCCCCNCCCCNC/C=C/CNCCCCNCCCCNCCCCNCCCCNCCCCNCCCCNCC |  | 7.9 | 6.5 |  |  |  |  |  |
| CCNCCCNCC1CC1CNCCCNCC (stereo not given) | inactive | 106 |  |  |  |  |  |  |
| CC(/C=N/NC(=N)N)=N\NC(=N)N [MITOGUAZONE] |  |  | 1800 | 2200 | 1400 | 1500 | 2600 | 1800 |
| CN(C/C=C\CN)C[C@H]1O[C@@H](n2cnc3c(N)ncnc32)[C@H](O)[C@@H]1O |  |  | 40 | 2700 | 200 | > 10000 | 800 | > 10000 |
| N=C(N)c1ccc(/N=N/Nc2ccc(C(=N)N)cc2)cc1 [DIMINAZENE] |  |  | 9.5 | 8.7 | 8 | 9.7 | 6.1 | 9.7 |
| CCNCCCCNCC1CC1CNCCCCNCC (stereo not given) | inactive | 81.4 |  |  |  |  |  |  |
| CCCCN [BUTYLAMINE] |  |  | 400 | 2100 | 3300 | 200 | 2000 | > 10000 |
